Laboratory results as given in the NIST ThermoML archive (doi:10.1021/je060271a).

Conditions: 343.15 K, Liquid, Vibrating tube method

CCCCCCCC(=O)OCC(COC(=O)CCCCCCC)(COC(=O)CCCCCCC)COC(=O)CCCCCCC [pentaerythritol tetraoctanoate]
Conditions | mass density [kg/m3]
4105.1 kPa | 929.1
4132.4 kPa | 929.2
4136.6 kPa | 929.1
4140.2 kPa | 929.1
4142.5 kPa | 929
4144.7 kPa | 929.2
4148 kPa | 929.2
4149.4 kPa | 929
4149.6 kPa | 929
4163.9 kPa | 929.2
4189.2 kPa | 929.1
4213.5 kPa | 929.1
4238.2 kPa | 929.2
4268.5 kPa | 929.1
4295 kPa | 929.3
4321.4 kPa | 929.2
4348.4 kPa | 929.2
4373.8 kPa | 929.1
4394.2 kPa | 929.2
4418.5 kPa | 929.1
4438.6 kPa | 929.2
4459 kPa | 929.3
4483.8 kPa | 929.4
4504.7 kPa | 929.3
4525.8 kPa | 929.4
4546.8 kPa | 929.4
4573.1 kPa | 929.3
4596.8 kPa | 929.5
4619 kPa | 929.5
4641.5 kPa | 929.4
4713.3 kPa | 929.5
4740.6 kPa | 929.4
4763.8 kPa | 929.5
4787 kPa | 929.6
4811.1 kPa | 929.6
4839.6 kPa | 929.6
4864.5 kPa | 929.5
4889.8 kPa | 929.7
4915.8 kPa | 929.8
4945.5 kPa | 929.6
4970.5 kPa | 929.8
4996.2 kPa | 929.6
5026.3 kPa | 929.7
5052.8 kPa | 929.8
5079.6 kPa | 929.8
5112.2 kPa | 929.7
5139.3 kPa | 929.8
5167 kPa | 929.8
5189.5 kPa | 929.8
5228.6 kPa | 929.8
5257.5 kPa | 929.9
5286.4 kPa | 929.8
5321 kPa | 930
5350.7 kPa | 930
5380.5 kPa | 929.9
5410.7 kPa | 929.9
5447.9 kPa | 929.9
5480.3 kPa | 930
5514 kPa | 930.1
5545.6 kPa | 930.2
5572.5 kPa | 930.2
5593.9 kPa | 930.1
5619.7 kPa | 930.1
5642.1 kPa | 930.2
5664.3 kPa | 930.2
5686.4 kPa | 930.2
5712.7 kPa | 930.3
5735.2 kPa | 930.2
5757.8 kPa | 930.3
5785.1 kPa | 930.2
5808.1 kPa | 930.2
5832 kPa | 930.3
5855.9 kPa | 930.3
5884.4 kPa | 930.4
5908.6 kPa | 930.4
5933.3 kPa | 930.4
5959.2 kPa | 930.5
5984.1 kPa | 930.3
6013.9 kPa | 930.4
6039.1 kPa | 930.4
6064.3 kPa | 930.5
6090.1 kPa | 930.4
6121 kPa | 930.5
6147.5 kPa | 930.5
6174.6 kPa | 930.5
6205.9 kPa | 930.5
6232.5 kPa | 930.6
6260.2 kPa | 930.7
6288.7 kPa | 930.6
6316.5 kPa | 930.6
6348.8 kPa | 930.7
6376.3 kPa | 930.6
6404.7 kPa | 930.6
6439.7 kPa | 930.7
6468.8 kPa | 930.7
6497.8 kPa | 930.7
6532.7 kPa | 930.8
6563.4 kPa | 930.8
6593.5 kPa | 930.9
6624.3 kPa | 930.8
6662.3 kPa | 930.8
6694.9 kPa | 930.9
6726.4 kPa | 930.9
6757.3 kPa | 930.9
6788.9 kPa | 931.1
6826.4 kPa | 931
6858.7 kPa | 931.1
6891.5 kPa | 931
6930.9 kPa | 931.2
6964.4 kPa | 931
6998.3 kPa | 931.1
7038.9 kPa | 931.2
7073.6 kPa | 931.2
7109 kPa | 931.2
7146.6 kPa | 931.3
7184.3 kPa | 931.3
7220.4 kPa | 931.2
7264.4 kPa | 931.2
7301.6 kPa | 931.4
7339.6 kPa | 931.5
7378.1 kPa | 931.3
7424.8 kPa | 931.3
7463.5 kPa | 931.5
7503.2 kPa | 931.5
7535.8 kPa | 931.5
7575 kPa | 931.6
7614.7 kPa | 931.5
7673.1 kPa | 931.6
7715 kPa | 931.7
7765.2 kPa | 931.6
7808 kPa | 931.8
7853.1 kPa | 931.7
7898.8 kPa | 931.7
7950.2 kPa | 931.8
7984.6 kPa | 931.8
8150.9 kPa | 931.9
8189.7 kPa | 932
8222.6 kPa | 932
8255.6 kPa | 932
8295.8 kPa | 932.1
8329.6 kPa | 932.1
8363.2 kPa | 932.1
8515 kPa | 932.1
8550.2 kPa | 932.2
8585.9 kPa | 932.3
8629.7 kPa | 932.3
8666.6 kPa | 932.3
8703.3 kPa | 932.4
